According to ChEMBL document CHEMBL4665818, “Calvatianone, a Sterol Possessing a 6/5/6/5-Fused Ring System with a Contracted Tetrahydrofuran B-Ring, from the Fruiting Bodies of Calvatia nipponica” (J Nat Prod, 2020):
Calls of active or inactive are those of the source. The rule behind the calls is not given here.

Columns and labels:
Format in all cases: functional, cell-based
[1] = tested on: MCF7; test: Cytotoxicity against human MCF7 cells assessed as reduction in cell viability at 100 nM after 24 hrs in presence of ER antagonist ICI 182,780 by MTT assay
[2] = tested on: MCF7; test: Cytotoxicity against human MCF7 cells assessed as reduction in cell viability <= 100 uM after 24 hrs by MTT assay; conditions: dose microM <=100, time 24.0 hrs
[3] = tested on: MCF7; test: Cytotoxicity against human MCF7 cells assessed as 17beta-estradiol-induced reduction in cell viability at 200 uM after 24 hrs by MTT assay
[4] = tested on: MCF7; test: Cytotoxicity against human MCF7 cells assessed as 17beta-estradiol-induced reduction in cell viability at 100 uM after 24 hrs by MTT assay

Structure (SMILES) | Activity [1] | Activity [2] | Activity [3] | Activity [4]
COC(=O)C[C@]12OC3=CC(=O)CC[C@]3(C)[C@H]1CC[C@]1(C)[C@@H]([C@H](C)/C=C/[C@H](C)C(C)C)CC[C@H]12 | Active | Active | – | –
CC(C)[C@@H](C)/C=C/[C@@H](C)[C@H]1CCC(=O)[C@]23CC(=O)[C@@H]4CC(=O)CC[C@]4(C)[C@H]2CC[C@]13C | Active | Active | – | –
CC(C)[C@@H](C)/C=C/[C@@H](C)[C@H]1CC[C@H]2[C@]3(O)C=CC4=CC(=O)CC[C@]4(C)[C@H]3CC[C@]12C | Active | Active | Active | –
CC(C)[C@@H](C)/C=C/[C@@H](C)[C@H]1CC[C@@H]2[C@]1(C)CC[C@H]1[C@]23C=C[C@]2(C[C@@H](O)CC[C@]12C)OO3 | Active | Active | – | Active
CC(C)[C@@H](C)/C=C/[C@@H](C)[C@H]1CC[C@@H]2[C@]1(C)CC=C1[C@]23C=C[C@]2(C[C@@H](O)CC[C@]12C)OO3 | Active | Active | – | –
